Assay results published in ChEMBL document CHEMBL1201862, “PubChem BioAssay data set” (2004).
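Method: 48-hour compound exposure of cells in 96-well plates, five concentrations, linear interpolation of endpoints. GI50 = concentration required for 50% inhibition of growth.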 Active and inactive are the calls of the source. Rule as the data show it: active = GI50 up to about 1.1 µM and inactive = higher.

Legend:
Assay in all cases: NCI-60 cell line screen, 48 h
[1] = system: A498
[2] = system: RPMI-8226
[3] = system: NCI-H23
[4] = system: HOP-92
[5] = system: OVCAR-3
[6] = system: SF-295
[7] = system: SN12C
[8] = system: LOX IMVI
[9] = system: UACC-62
[10] = system: SK-MEL-28
[11] = system: DU-145
[12] = system: 786-0
[13] = system: MCF7
[14] = system: COLO 205
[15] = system: SR
[16] = system: HL-60
[17] = system: K562
[18] = system: IGROV-1
[19] = system: SF-539
[20] = system: SNB-19

Measured: GI50

N[C@@H](Cc1ccc2oc3cc(=O)c4ccccc4c-3nc2c1)C(=O)O
inactive: [1] > 100 µM | [2] > 100 µM | [3] 13.4 µM | [4] > 100 µM | [5] 27.2 µM | [6] 30.4 µM | [7] 55.5 µM | [8] 37.8 µM | [9] 27.4 µM | [10] 62.4 µM | [11] 19.5 µM | [12] > 100 µM | [13] 2.36 µM | [14] 11.5 µM | [15] 24.7 µM | [16] > 100 µM | [17] > 100 µM | [18] > 100 µM | [19] 74 µM | [20] 26.4 µM

COc1cc2c(cc1OC)C(Cl)C(c1ccc(F)cc1)=C2Cl (stereo not given)
inactive: [1] 14.9 µM | [2] 9.06 µM | [3] 11.8 µM | [4] 9.08 µM | [5] 16.7 µM | [6] 14.4 µM | [7] 12.8 µM | [8] 11.6 µM | [9] 12.9 µM | [10] 17.3 µM | [11] 14.9 µM | [12] 11.7 µM | [13] 11.6 µM | [14] 16.6 µM | [15] 3.01 µM | [16] 5.68 µM | [17] 6.12 µM | [18] 17.4 µM | [19] 16.3 µM | [20] 17.5 µM

C/C=C\C(C)=C/C(C)C(=O)CC(O)CC1CC(=O)NC(=O)C1 (stereo not given)
inactive: [1] 28.6 µM | [2] 19 µM | [3] 23.7 µM | [4] 72.8 µM | [5] 22.3 µM | [6] 5.79 µM | [7] 13 µM | [8] 20.6 µM | [9] 9.73 µM | [10] 34.4 µM | [11] 19.1 µM | [12] 13.5 µM | [13] 21 µM | [14] 17.1 µM | [15] 10.9 µM | [16] 40.2 µM | [17] 20.5 µM | [18] 19 µM | [19] 14 µM | [20] 17.8 µM

COc1ccc(N2C(=O)CC(=O)N(NC(=O)C(C)Oc3ccccc3C)C2=S)cc1 (stereo not given)
inactive: [1] > 100 µM | [2] > 100 µM | [3] > 100 µM | [4] > 100 µM | [5] > 100 µM | [6] > 100 µM | [7] > 100 µM | [8] > 100 µM | [9] > 100 µM | [10] > 100 µM | [11] > 100 µM | [12] > 100 µM | [13] > 100 µM | [14] > 100 µM | [15] > 100 µM | [16] > 100 µM | [17] > 100 µM | [18] > 100 µM | [19] > 100 µM | [20] > 100 µM

FC(F)(F)C1(c2ccccc2)SCc2nc3ccccc3n21 (stereo not given)
inactive: [1] > 100 µM | [2] 70.5 µM | [3] 71.9 µM | [4] 47.2 µM | [5] > 100 µM | [6] > 100 µM | [7] > 100 µM | [8] 97.5 µM | [9] > 100 µM | [10] > 100 µM | [11] > 100 µM | [12] > 100 µM | [13] > 100 µM | [14] > 100 µM | [15] 35.2 µM | [16] 24.2 µM | [17] 43.7 µM | [18] > 100 µM | [19] > 100 µM | [20] > 100 µM

O=C(NCCCCNCCCNC(=O)c1cc(-c2ccccc2)nc2ccccc12)c1cc(-c2ccccc2)nc2ccccc12
inactive: [1] 2.08 µM | [2] 2.5 µM | [3] 1.98 µM | [4] 1.37 µM | [5] 1.55 µM | [6] 1.77 µM | [7] 1.97 µM | [8] 1.54 µM | [9] 2.12 µM | [10] 1.83 µM | [11] 1.78 µM | [12] 1.67 µM | [13] 1.64 µM | [14] 1.49 µM | [15] 2.35 µM | [16] 1.71 µM | [17] 1.81 µM | [18] 1.55 µM | [19] 2.13 µM | [20] 1.76 µM
